We go through 30 compounds from patent US11884647B2, “Compounds and methods for targeting pathogenic blood vessels” (THE REGENTS OF THE UNIVERSITY OF CALIFORNIA, priority 2019, dated 2024).

The experiment has as its system tumor endothelial cells (LL/2 lung cancer tumor). The experiment in a line: Lung LL2 ex vivo model of tumor angiogenesis. The settings on record: for Cell death: drug treatment two days; for cytotoxicity at 20 µM / cytotoxicity at 40 µM / cytotoxicity at 10 µM: Mus musculus, Endothelial cell, 48 h, read-out: Cell death. Format: cell-based, mouse. Summed up: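 Read-out is live/dead fluorescence imaging (fluorescein diacetate green, propidium iodide red, 10 min at 37° C) at 2×, taken e.g. 48 h after drug addition. Fragments of mouse LL2 tumor are cultured in Matrigel with endothelial growth medium, usually 4 days, until new endothelial cells grow out, then treated.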

The mark [1] stands for this setting: Lung LL2 ex vivo, Conc. 20 μm, (24 hrs).

For the compound `CCCCOc1ccc(S(=O)(=O)c2cnc3ccc(SC)cc3c2N2CCCN(c3nc4ccc(Cl)cc4s3)CC2)cc1` [compound 356, 2-(4-(3-((4-butoxyphenyl)sulfonyl)-6-(methylthio)quinolin-4-yl)-1,4-diazepan-1-yl)-6-chlorobenzo[d]thiazole], where the note is “Lung LL2 ex vivo, Conc. 40 μm”, the Cell death was 0%.
For `CCCCCCCCCCCCOc1ccc(S(=O)(=O)c2cnc3ccc([S+](C)[O-])cc3c2N2CCC(N3CCC(N4CCC(O)CC4)CC3)CC2)cc1F` (stereo not drawn) [compound 372, 1″-(3-((4-(dodecyloxy)-3-fluorophenyl)sulfonyl)-6-(methylsulfinyl)quinolin-4-yl)-[1,4′:1′,4″- terpiperidin]-4-ol], the cytotoxicity at 20 µM is 20%.
As for `CCCCOc1ccc(S(=O)(=O)c2cnc3ccc(C(=O)OCC)cc3c2N2CCC(N3CCN(C)CC3)CC2)cc1` [compound 172, ethyl 3-((4-butoxyphenyl)sulfonyl)-4-(4-(4-methylpiperazin-1-yl)piperidin-1-yl)quinoline-6-carboxylate], the cytotoxicity at 40 µM came out at 100%.
Take `CCCCOc1ccc(S(=O)(=O)c2cnc3ccc(SC)cc3c2N2CCCN(CC3(O)CCCC3)CC2)cc1` [compound 354, 1-((4-(3-((4-butoxyphenyl)sulfonyl)-6-(methylthio)quinolin-4-yl)-1,4-diazepan-1-yl)methyl)cyclopentan-1-ol]: for the setting “Lung LL2 ex vivo, Conc. 40 μm”, the Cell death stood at 0%.
Regarding `CCCCOc1ccc(S(=O)(=O)c2cnc3ccc([S+](C)[O-])cc3c2N2CCC(N3CCC(CO)CC3)CC2)cc1` (stereo not drawn) [compound 240, (1′-(3-((4-butoxyphenyl)sulfonyl)-6-(methylsulfinyl)quinolin-4-yl)-[1,4′-bipiperidin]-4-yl)methanol], the cytotoxicity at 40 µM turned out to be 30%.
For the compound `CCc1ccc(S(=O)(=O)c2cnc3ccc(OC(F)(F)F)cc3c2NCc2ccncc2)cc1` [compound 106, 3-((4-ethylphenyl)sulfonyl)-N-(pyridin-4-ylmethyl)-6-(trifluoromethoxy)quinolin-4-amine], the cytotoxicity at 20 µM was determined as 5%.
Still for that read-out and setting: next, `CCOC(=O)c1ccc2ncc(S(=O)(=O)c3ccc(CC)cc3)c(-n3nnc4ccccc43)c2c1` [compound 133, ethyl 4-(1H-benzo[d][1,2,3]triazol-1-yl)-3-((4-ethylphenyl)sulfonyl)quinoline-6-carboxylate]: 10%.
As to `CCCCCCCCCCOc1ccc(S(=O)(=O)c2cnc3ccc([S+](C)[O-])cc3c2N2CCC(N3CCC(N4CCN(CCO)CC4)CC3)CC2)cc1` (stereo not drawn) [compound 292, 2-(4-(1′-(3-((4-(decyloxy)phenyl)sulfonyl)-6-(methylsulfinyl)quinolin-4-yl)-[1,4′-bipiperidin]-4-yl)piperazin-1-yl)ethan-1-ol], under setting [1], the “Cell death (24 hrs)” value was 10% and the “Morphology observations (24 hrs)” value is “* (50% or less of cells vesicularize in cell shape)”.
For the compound `CCOC(=O)c1ccc2ncc(S(=O)(=O)c3ccc(OC)cc3)c(N3CCC(N4CCCCCC4)CC3)c2c1` [compound 173, ethyl 4-(4-(azepan-1-yl)piperidin-1-yl)-3-((4-methoxyphenyl)sulfonyl)quinoline-6-carboxylate], the cytotoxicity at 40 µM stood at 50%.
On to “3-((4-(heptyloxy)phenyl)sulfonyl)-4-(4- (4-(2-mPEGoxyethyl)piperazin-1- yl)piperidin-1-yl)-6- (methylsulfinyl)quinoline [compound 280]”, for which, for the setting “Lung LL2 ex vivo, Conc. 20 μm”, the “48 hrs (morphology observations after 48 hours)” value is recorded as “*** (100% of endothelial cells vesicularize in cell shape)” and the Cell death was 100%.
Regarding `CCOC(=O)c1ccc2ncc(S(=O)(=O)c3ccc(OC)cc3)c(-n3ccnn3)c2c1` [compound 184, ethyl 3-((4-methoxyphenyl)sulfonyl)-4-(1H-1,2,3-triazol-1-yl)quinoline-6-carboxylate], the cytotoxicity at 10 µM worked out at 5%.
Take `COc1ccc(S(=O)(=O)c2cnc3cc(OC)c(OC)cc3c2N2CCC(=O)N(C)CC2)cc1` [compound 328, 1-(6,7-dimethoxy-3-((4-methoxyphenyl)sulfonyl)quinolin-4-yl)-4-methyl-1,4-diazepan-5-one]: the cytotoxicity at 40 µM was 30%.
“4-([1,4′:1′,4″-terpiperidin]-1″-yl)-6- (methyl(λ^1-oxidanyl)-λ^3-sulfanyl)-3-((4- (tetradecyloxy)phenyl)sulfonyl)quinoline [compound 347]”: for the setting “Lung LL2 ex vivo, Conc. 20 μm”, the “48 hrs (morphology observations after 48 hours)” value was “*** (100% of endothelial cells vesicularize in cell shape)” and the Cell death is 30%.
The compound `CCCCOc1ccc(S(=O)(=O)c2cnc3ccc(SC)cc3c2N2CCCN(CCO)CC2)cc1` [compound 351, 2-(4-(3-((4-butoxyphenyl)sulfonyl)-6-(methylthio)quinolin-4-yl)-1,4-diazepan-1-yl)ethan-1-ol] showed a Cell death (Lung LL2 ex vivo, Conc. 40 μm) of 100%.
Consider `CCOC(=O)c1ccc2ncc(S(=O)(=O)c3ccc(OC)cc3)c(N3CCC(N4CCC(CO)CC4)CC3)c2c1` [compound 175, ethyl 4-(4-(hydroxymethyl)-[1,4′-bipiperidin]-1′-yl)-3-((4-methoxyphenyl)sulfonyl)quinoline-6-carboxylate], for which the cytotoxicity at 40 µM stood at 30%.
As for `CCCCOc1ccc(S(=O)(=O)c2cnc3ccc(SC)cc3c2N2CCC(N3CCCN(C)CC3)CC2)cc1` [compound 234, 3-((4-butoxyphenyl)sulfonyl)-4-(4-(4-methyl-1,4-diazepan-1-yl)piperidin-1-yl)-6-(methylthio)quinoline], the cytotoxicity at 40 µM came out at 100%.
Still for that read-out and setting: next, `CCCCOc1ccc(S(=O)(=O)c2cnc3ccc(C(=O)N(CC)CC)cc3c2N2CCCN(C)CC2)cc1` [compound 199, 3-((4-butoxyphenyl)sulfonyl)-N,N-diethyl-4-(4-methyl-1,4-diazepan-1-yl)quinoline-6-carboxamide]: 30%; `CNC(=O)c1ccc2ncc(S(=O)(=O)c3ccc(OC)cc3)c(N3CCC(N4CCCC4CO)CC3)c2c1` (stereo not drawn) [compound 336, 4-(4-(2-(hydroxymethyl)pyrrolidin-1-yl)piperidin-1-yl)-3-((4-methoxyphenyl)sulfonyl)-N-methylquinoline-6-carboxamide]: 0%.
In the case of `CCc1ccc(S(=O)(=O)c2cnc3ccc(OC)cc3c2NN2CCN(C)CC2)cc1` [compound 83, 3-((4-ethylphenyl)sulfonyl)-6-methoxy-N-(4-methylpiperazin-1-yl)quinolin-4-amine], where the note is “Lung LL2 ex vivo, Conc. 40 μm”, the Cell death worked out at 20%.
On to `COc1ccc(C2CCN(c3c(S(=O)(=O)c4ccc(OC)cc4)cnc4cc(OC)c(OC)cc34)CC2)cc1` [compound 311, 6,7-dimethoxy-4-(4-(4-methoxyphenyl)piperidin-1-yl)-3-((4-methoxyphenyl)sulfonyl)quinoline], for which the cytotoxicity at 40 µM is 30%.
Turning to `CCCCCCCCCCOc1ccc(S(=O)(=O)c2cnc3ccc([S+](C)[O-])cc3c2N2CCC(N3CCC(N4CCCC(O)C4)CC3)CC2)cc1` (stereo not drawn) [compound 288, 1″-(3-((4-(decyloxy)phenyl)sulfonyl)-6-(methylsulfinyl)quinolin-4-yl)-[1,4′:1′,4″- terpiperidin]-3-ol], the cytotoxicity at 10 µM was determined as 50%.
For the compound `CCCCOc1ccc(S(=O)(=O)c2cnc3ccc([S+](C)[O-])cc3c2N2CCC(N3CCOCC3)CC2)cc1` (stereo not drawn) [compound 235, 4-(1-(3-((4-butoxyphenyl)sulfonyl)-6-(methylsulfinyl)quinolin-4-yl)piperidin-4-yl)morpholine], the cytotoxicity at 40 µM was 10%.
As to `CCCCOc1ccc(S(=O)(=O)c2cnc3ccc(SC)cc3c2N2CCC(N3CCN(CCO)CC3)CC2)cc1` [compound 230, 2-(4-(1-(3-((4-butoxyphenyl)sulfonyl)-6-(methylthio)quinolin-4-yl)piperidin-4-yl)piperazin-1-yl)ethan-1-ol], the Cell death (Lung LL2 ex vivo, Conc. 40 μm) is 100%.
Take `CCCCCCCCCCCCOc1ccc(S(=O)(=O)c2cnc3ccc([S+](C)[O-])cc3c2N2CCC(N3CCC(N4CCC(O)CC4)CC3)CC2)cc1` (stereo not drawn) [compound 374, 1″-(3-((4-(dodecyloxy)phenyl)sulfonyl)-6-(methylsulfinyl)quinolin-4-yl)-[1,4′:1′,4″-terpiperidin]-4-ol]: the cytotoxicity at 20 µM was found to be 20%.
Still for that read-out and setting: for `CCc1ccc(S(=O)(=O)c2cnc3ccc(OC(F)(F)F)cc3c2NN2CCCCC2)cc1` [compound 105, 3-((4-ethylphenyl)sulfonyl)-N-(piperidin-1-yl)-6-(trifluoromethoxy)quinolin-4-amine] the value was 0%.
As for `CCCCOc1ccc(S(=O)(=O)c2cnc3ccc(SC)cc3c2N2CCCN(C3CCS(=O)(=O)CC3)CC2)cc1` [compound 359, 4-(4-(3-((4-butoxyphenyl)sulfonyl)-6-(methylthio)quinolin-4-yl)-1,4-diazepan-1-yl)tetrahydro-2H-thiopyran 1,1-dioxide], the Cell death (Lung LL2 ex vivo, Conc. 40 μm) was 20%.
`CCCCCCCCCCOc1ccc(S(=O)(=O)c2cnc3ccc([S+](C)[O-])cc3c2N2CCC(N3CCC(N4CCCCC4)CC3)CC2)cc1` (stereo not drawn) [compound 269, 4-([1,4′:1′,4″-terpiperidin]-1″-yl)-3-((4-(decyloxy)phenyl)sulfonyl)-6-(methylsulfinyl)quinoline]: the cytotoxicity at 20 µM is 100%.
With `CCCCCCCOc1ccc(S(=O)(=O)c2cnc3ccc(SC)cc3c2N2CCN(CC3CCN(Cc4ccccc4)CC3)CC2)cc1` [compound 275, 4-(4-((1-benzylpiperidin-4-yl)methyl)piperazin-1-yl)-3-((4-(heptyloxy)phenyl)sulfonyl)-6-(methylthio)quinoline], the cytotoxicity at 20 µM stood at 5%.
As to `CCc1ccc(S(=O)(=O)c2cnc3ccc(OC(F)(F)F)cc3c2Nc2ccncc2)cc1` [compound 107, 3-((4-ethylphenyl)sulfonyl)-N-(pyridin-4-yl)-6-(trifluoromethoxy)quinolin-4-amine], the cytotoxicity at 20 µM was determined as 0%.
Take `CCOC(=O)c1ccc2ncc(S(=O)(=O)c3ccc(OC)cc3)c(N3CCCN(CCN4CCCC4)CC3)c2c1` [compound 180, ethyl 3-((4-methoxyphenyl)sulfonyl)-4-(4-(2-(pyrrolidin-1-yl)ethyl)-1,4-diazepan-1-yl)quinoline-6-carboxylate]: the cytotoxicity at 10 µM was found to be 70%.
